This note sets out measurements from patent US20200405697A1, “Antitumor Agent” (Taiho Pharmaceutical Co., Ltd, priority 2017, published 2020).

Usually pIC50 stands for the negative decadic logarithm of the IC50, by convention in mol/L.

The test addresses T1, human RNR (histidine tagged human M1 and human M2 proteins) (Homo sapiens, UniProt P23921).
T1 construct: made in house; host or cells: Escherichia coli
T1 sequence (P23921 1-792): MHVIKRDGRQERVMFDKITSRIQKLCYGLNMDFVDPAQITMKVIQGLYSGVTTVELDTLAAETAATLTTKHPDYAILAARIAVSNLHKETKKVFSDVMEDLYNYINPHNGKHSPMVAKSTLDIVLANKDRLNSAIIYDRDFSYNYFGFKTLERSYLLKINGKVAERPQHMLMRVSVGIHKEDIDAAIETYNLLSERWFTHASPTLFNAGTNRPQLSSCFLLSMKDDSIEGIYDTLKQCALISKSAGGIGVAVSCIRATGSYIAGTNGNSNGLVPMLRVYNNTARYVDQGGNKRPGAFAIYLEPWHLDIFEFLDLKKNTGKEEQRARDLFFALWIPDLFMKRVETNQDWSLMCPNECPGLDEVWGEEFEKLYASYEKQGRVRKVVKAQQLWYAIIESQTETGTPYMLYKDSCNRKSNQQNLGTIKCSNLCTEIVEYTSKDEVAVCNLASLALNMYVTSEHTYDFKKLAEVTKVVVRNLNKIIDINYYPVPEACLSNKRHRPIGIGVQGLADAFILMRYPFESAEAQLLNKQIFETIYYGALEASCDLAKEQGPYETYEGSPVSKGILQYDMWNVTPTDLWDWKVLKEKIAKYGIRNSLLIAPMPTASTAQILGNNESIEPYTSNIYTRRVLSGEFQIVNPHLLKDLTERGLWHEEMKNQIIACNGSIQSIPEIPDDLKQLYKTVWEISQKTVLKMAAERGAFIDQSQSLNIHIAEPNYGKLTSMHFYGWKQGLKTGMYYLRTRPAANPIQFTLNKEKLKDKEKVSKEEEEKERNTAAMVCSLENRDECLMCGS
The experiment in a line: Human RNR inhibition effect (dCDP formation from CDP). Type of test: biochemical. The following applies: 10 μM CDP, 37° C. for 30 minutes, read-out: RNR inhibitory activity IC50. Summed up:
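His-tagged human M1 (isoform 1) and N-terminal 59-aa-truncated M2 (isoform 2), E. coli-expressed, Ni-purified, preincubated 20 min with compound (1% DMSO). Reaction with 10 μM CDP, 2 mM ATP, 0.24 mM NADPH, 6 mM DTT, 4 mM Mg acetate, 100 mM KCl, 50 mM HEPES pH 7.2, 30 min at 37° C. dCDP formed quantified by reverse-phase HPLC after heat stop.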

pIC50: −log10 of the molar value.

As to `COc1ccc(-c2ccc(F)c([C@@H](C)[C@H](NS(=O)(=O)c3ccc(Cl)cc3OC)c3n[nH]c(=O)o3)c2C)cn1` [Example 314, 4-chloro-N-((1S,2R)-2-(6-fluoro-3-(6-methoxypyridin-3-yl)-2-methylphenyl)-1-(5-oxo-4,5-dihydro-1,3,4-oxadiazol-2-yl)propyl)-2-methoxybenzenesulfonamide], the pIC50 is 6.59.
Consider `Cc1ccc(F)c([C@@H](C)[C@H](NS(=O)(=O)c2ccc(Cl)c(C(=O)N3CCC4(COC4)C3)n2)c2n[nH]c(=O)o2)c1C` [Example 155, 5-chloro-N-((1S,2R)-2-(6-fluoro-2,3-dimethylphenyl)-1-(5-oxo-4,5-dihydro-1,3,4-oxadiazol-2-yl)propyl)-6-(2-oxa-6-aza-spiro[3.4]octane-6-carbonyl)pyridine-2-sulfonamide], for which the negative-log IC50 (pIC50) was 6.89.
Regarding `Cc1ccc(F)c([C@@H](C)[C@H](NS(=O)(=O)c2ccc(F)c3c2OCCC3O)c2n[nH]c(=O)o2)c1C` (stereo partly drawn) [Example 241, 5-fluoro-N-((1S,2R)-2-(6-fluoro-2,3-dimethylphenyl)-1-(5-oxo-4,5-dihydro-1,3,4-oxadiazol-2-yl)propyl)-4-hydroxychroman-8-sulfonamide], the pIC50 was 6.85.
In the case of `CC(=O)N1CCOc2c(S(=O)(=O)N[C@H](c3n[nH]c(=O)o3)[C@H](C)c3cccc(C)c3C)ccc(Cl)c21` [Example 284, 4-acetyl-5-chloro-N-((1S,2R)-2-(2,3-dimethylphenyl)-1-(5-oxo-4,5-dihydro-1,3,4-oxadiazol-2-yl)propyl)-3,4-dihydro-2H-benzo[b][1,4]oxazine-8-sulfonamide], the pIC50 is 6.25.
`CCc1ccc(F)c([C@@H](C)[C@H](NS(=O)(=O)c2ccc(Cl)c3c2OCCC3O)c2n[nH]c(=O)o2)c1C` (single isomer, unassigned) [Example 239A]: the pIC50 is 6.70.
Turning to `Cc1ccc(F)c([C@@H](C)[C@H](NS(=O)(=O)c2ccc3[nH]ncc3c2)c2n[nH]c(=O)o2)c1C` [Example 182, N-((1S,2R)-2-(6-fluoro-2,3-dimethylphenyl)-1-(5-oxo-4,5-dihydro-1,3,4-oxadiazol-2-yl)propyl)-1H-indazole-5-sulfonamide], the pIC50 was 6.39.
Consider `Cc1ccc(F)c([C@@H](C)[C@H](NS(=O)(=O)c2ccc(F)c3c2OCCC3(C)O)c2n[nH]c(=O)o2)c1C` (single isomer, unassigned) [Example 224A], for which the pIC50 is 7.05.
Take `COc1cc(Cl)ccc1S(=O)(=O)N[C@H](c1n[nH]c(=O)o1)[C@H](C)c1c(F)ccc(-c2cncc(C(=O)N3CCOCC3)c2)c1C` [Example 323, 4-chloro-N-((1S,2R)-2-(6-fluoro-2-methyl-3-(5-(morpholine-4-carbonyl)pyridin-3-yl)phenyl)-1-(5-oxo-4,5-dihydro-1,3,4-oxadiazol-2-yl)propyl)-2-methoxybenzenesulfonamide]: the pIC50 was 6.38.
`Cc1c(Br)ccc(F)c1[C@@H](C)[C@H](NS(=O)(=O)c1ccc(Cl)cc1C(N)=O)c1n[nH]c(=O)o1` [Example 30, 2-(N-((1S,2R)-2-(3-bromo-6-fluoro-2-methylphenyl)-1-(5-oxo-4,5-dihydro-1,3,4-oxadiazol-2-yl)propyl)sulfamoyl)-5-chlorobenzamide]: the pIC50 is 6.82.
With `Cc1ccc(F)c([C@@H](C)[C@H](NS(=O)(=O)c2ccc(Cl)c3c2OCCC3N)c2n[nH]c(=O)o2)c1C` (stereo partly drawn) [Example 278, 4-amino-5-chloro-N-((1S,2R)-2-(6-fluoro-2,3-dimethylphenyl)-1-(5-oxo-4,5-dihydro-1,3,4-oxadiazol-2-yl)propyl)chroman-8-sulfonamide], the pIC50 is 6.89.
`Cc1ccc(F)c([C@@H](C)[C@H](NS(=O)(=O)c2ccc([N+](=O)[O-])cc2)c2n[nH]c(=O)o2)c1C` [Example 340, N-((1S,2R)-(6-fluoro-2,3-dimethylphenyl)-1-(5-oxo-4,5-dihydro-1,3,4-oxadiazol-2-yl)propyl)-4-nitrobenzenesulfonamide]: the negative-log IC50 (pIC50) is 6.57.
For the compound `Cc1ccc(F)c([C@@H](C)[C@H](NS(=O)(=O)c2ccc(Cl)c3c2OCCC3(C)O)c2n[nH]c(=O)o2)c1C` (single isomer, unassigned) [Example 207A], the pIC50 is 6.89.
Then `COc1cc(N)ccc1S(=O)(=O)N[C@H](c1n[nH]c(=O)o1)[C@H](C)c1cccc2cccc(C)c12` [Example 269, 4-amino-2-methoxy-N-((1S,2R)-2-(8-methylnaphthalen-1-yl)-1-(5-oxo-4,5-dihydro-1,3,4-oxadiazol-2-yl)propyl)benzenesulfonamide], with 6.29; and `Cc1ccc(F)c([C@@H](C)[C@H](NS(=O)(=O)c2ccc(F)c3c2OCCC3O)c2n[nH]c(=O)o2)c1C` (single isomer, unassigned) [Example 230B], with 7.30; and `Cc1ccc(F)c([C@@H](C)[C@H](NS(=O)(=O)c2ncc(Cl)cc2C(N)=O)c2n[nH]c(=O)o2)c1C` [Example 245, 5-chloro-2-(N-((1S,2R)-2-(6-fluoro-2,3-dimethylphenyl)-1-(5-oxo-4,5-dihydro-1,3,4-oxadiazol-2-yl)propyl)sulfamoyl)nicotinamide], with 7.40.
Then `Cc1ccc(F)c([C@@H](C)[C@H](NS(=O)(=O)c2ccc(Cl)cc2N)c2n[nH]c(=O)o2)c1C` [Example 271, 2-amino-4-chloro-N-((1S,2R)-2-(6-fluoro-2,3-dimethylphenyl)-1-(5-oxo-4,5-dihydro-1,3,4-oxadiazol-2-yl)propyl)benzenesulfonamide], with 6.64; and `Cc1ccc(F)c([C@@H](C)[C@H](NS(=O)(=O)c2ccc3[nH]c(=O)c(=O)[nH]c3c2)c2n[nH]c(=O)o2)c1C` [Example 172, N-((1S,2R)-2-(6-fluoro-2,3-dimethylphenyl)-1-(5-oxo-4,5-dihydro-1,3,4-oxadiazol-2-yl)propyl)-2,3-dioxo-1,2,3,4-tetrahydroquinoxaline-6-sulfonamide], with 6.09.
As for `COc1cc(Cl)ccc1S(=O)(=O)N[C@H](c1n[nH]c(=O)o1)[C@H](C)c1c(F)ccc(-c2ccc(Cl)cc2)c1C` [Example 302, 4-chloro-N-((1S,2R)-2-(4′-chloro-4-fluoro-2-methyl-[1,1′-biphenyl]-3-yl)-1-(5-oxo-4,5-dihydro-1,3,4-oxadiazol-2-yl)propyl)-2-methoxybenzenesulfonamide], the pIC50 is 6.31.
Take `COc1c(S(=O)(=O)N[C@H](c2n[nH]c(=O)o2)[C@H](C)c2c(F)ccc(C)c2C)ccc(Cl)c1C(C)(C)OC(C)=O` [Example 108, 2-(6-chloro-3-(N-((1S,2R)-2-(6-fluoro-2,3-dimethylphenyl)-1-(5-oxo-4,5-dihydro-1,3,4-oxadiazol-2-yl)propyl)sulfamoyl)-2-methoxyphenyl)propan-2-ylacetate]: the pIC50 was 6.37.
Then `Cc1ccc(F)c([C@@H](C)[C@H](NS(=O)(=O)c2ccc(Cl)c3c2OCC(=O)N3CCO)c2n[nH]c(=O)o2)c1C` [Example 273, 5-chloro-N-((1S,2R)-2-(6-fluoro-2,3-dimethylphenyl)-1-(5-oxo-4,5-dihydro-1,3,4-oxadiazol-2-yl)propyl)-4-(2-hydroxyethyl)-3-oxo-3,4-dihydro-2H-benzo[b][1,4]oxazine-8-sulfonamide], with 6.89.
Turning to `Cc1ccc(F)c([C@@H](C)[C@@H](c2n[nH]c(=O)o2)N(C)S(=O)(=O)c2ccc(Cl)cc2C(N)=O)c1C` [Example 337, 5-chloro-2-(N-((1S,2R)-2-(6-fluoro-2,3-dimethylphenyl)-1-(5-oxo-4,5-dihydro-1,3,4 oxadiazol-2-yl)propyl)-N-methylsulfamoyl)benzamide], the pIC50 is 7.10.
Take `COc1cc(Cl)ccc1S(=O)(=O)N[C@H](c1n[nH]c(=S)[nH]1)[C@H](C)c1c(F)ccc(C)c1C` [Example 350]: the pIC50 is 6.34.
Regarding `[2H]C([2H])([2H])C1(O)CCOc2c(S(=O)(=O)N[C@H](c3n[nH]c(=O)o3)[C@H](C)c3c(F)ccc(Br)c3C)ccc(Cl)c21` (single isomer, unassigned) [Example 226B], the pIC50 was 7.15.
Regarding `[2H]C([2H])([2H])C1(O)CCOc2c(S(=O)(=O)N[C@H](c3n[nH]c(=O)o3)[C@H](C)c3c(F)ccc(C)c3C)ccc(Cl)c21` (single isomer, unassigned) [Example 200B], the pIC50 was 7.10.
On to `COc1c(S(=O)(=O)N[C@H](c2n[nH]c(=O)o2)[C@H](C)c2c(F)ccc(C)c2C)ncc(Cl)c1C(C)OC(C)=O` (stereo partly drawn) [Example 120, 1-(5-chloro-2-(N-((1S,2R)-2-(6-fluoro-2,3-dimethylphenyl)-1-(5-oxo-4,5-dihydro-1,3,4-oxadiazol-2-yl)propyl)sulfamoyl)-3-methoxypyridin-4-yl)ethylacetate], for which the pIC50 was 6.37.
